The text below walks through data of patent publication US10370425B2, “Peptide antagonists of the calcitonin CGRP family of peptide hormones and their use” (priority 2012, dated 2019).

Structures are written as SMILES. Positions of bridges follow the written chain, without caps; N, C: chain ends. Residues, ends and D or L forms follow the SMILES beside them.

For the experiment, the target named is T1, amylin receptor, AMY1, a CT (calcitonin) receptor/RAMP1 (receptor-activity modifying protein) complex (Homo sapiens, UniProt O60894+P30988).
T1 construct: host or cells: CHO-K1/AMY1/Gα15
As to the kind of experiment: Calcium flux assay (FLIPR Calcium 4) of inhibition of α-CGRP stimulation in CHO-K1/AMY1/Gα15 cells. Conditions: at maximal test concentration (series starts with 1 μM); CHO-K1/AMY1/Gα15 cells stimulated with 32 nM (EC80) α-CGRP; n = 2; read-out: % Inhibition @ Maximal concentration (Mean +/− SD, n = 2). It is filed as cell-based. The procedure: Using a calcium flux assay, the dose-dependent inhibitory response of peptide antagonists of the present invention on an amylin receptor, AMY1, a CT (calcitonin) receptor/RAMP1 (receptor-activity modifying protein) complex was determined. The recombinant cell line CHO-K1/AMY1/Gα15 (GenScript, Piscataway, N.J., Catalog No. M00475) was employed in the assay. Peptide antagonist activities were tested, in duplicate, at five different concentrations, starting with 1 μM and serially diluted five-fold, in DMSO. AC187 (SEQ ID NO: 55), a known amylin receptor antagonist (available for example from Tocris Bioscience, Minneapolis, Minn., Catalog No. 3419) was used as a positive control in the assays, and human α-CGRP, a known amylin receptor agonist (SEQ ID NO:56) , (available for example from Tocris Bioscience, Minneapolis, Minn., Catalog No. 3012) was used as a positive control in the assays. The FLIPR® Calcium 4 Assay Kit (Molecular Devices, Sunnyvale, Calif.) was used.
Human α-CGRP having the amino acid sequence, NH2-[…]-NH2 (SEQ ID NO:56) and AC187 having the sequence […] (SEQ ID NO: 55) were employed as negative and positive controls, respectively. Stock solutions were further diluted in HBSS-HEPES buffer to make 5×final control solutions.
CHO-K1/AMY1/Gα15 cells were seeded in a 384-well black wall, clear bottom plate at a density of 20,000 cells/well in 20 μL of growth medium 20 hours prior to the day of the experiment and maintained at 37° C./5% CO2.
Per the assay kit protocol, dye-loading solution (at 2×final concentration) was added into the assay plate, 20 μL per well. Compound solution (at 5 ×final concentration) was added into the assay plate, 10 uL per well. The assay plate was placed into a 37° C. incubator for 1 hour, then left for 15 min at RT. The agonist plate (at 5×EC80 concentration) was placed in Source 2. The total reading time was 120 sec. The agonist was added after 20 seconds reading of the baseline and the fluorescence signal was captured for another 100 seconds (21 s to 120 s).
In screening, cells stimulated with assay buffer were chosen as the background; cells stimulated with agonist (at […] concentration) were chosen as the negative control.
Data were recorded by ScreenWorks (version 3.1) as FMD files and stored on the GenScript computer network for off-line analysis. Data acquisition and analyses was performed using ScreenWorks (version 3.1) program and exported to Excel. The average value of 20 (1 s to 20 s) seconds reading was calculated as the baseline reading and the relative fluorescent units (ΔRFU) intensity values were calculated with the maximal fluorescent units (21 s to 120 s) subtracting the average value of baseline reading.
The IC50 value of AC187 was 8 μM. The inhibitory activity of the tested peptide antagonists was normalized with the negative control (AC187) and reported as % Inhibition, calculated from the following equation: % Inhibition=(ΔRFUcompound−ΔRFUBackground)/(ΔRFUNegative control−ΔRFUBackground) * 100% Inhibition was then plotted along the Y-axis, with the test concentrations as indicated on the X-axis. The peptides were tested at indicated concentrations and stimulated with 32 nM (EC80) α-CGRP (Mean +/− SD, n=2).

T1 sequence (P30988 25-474): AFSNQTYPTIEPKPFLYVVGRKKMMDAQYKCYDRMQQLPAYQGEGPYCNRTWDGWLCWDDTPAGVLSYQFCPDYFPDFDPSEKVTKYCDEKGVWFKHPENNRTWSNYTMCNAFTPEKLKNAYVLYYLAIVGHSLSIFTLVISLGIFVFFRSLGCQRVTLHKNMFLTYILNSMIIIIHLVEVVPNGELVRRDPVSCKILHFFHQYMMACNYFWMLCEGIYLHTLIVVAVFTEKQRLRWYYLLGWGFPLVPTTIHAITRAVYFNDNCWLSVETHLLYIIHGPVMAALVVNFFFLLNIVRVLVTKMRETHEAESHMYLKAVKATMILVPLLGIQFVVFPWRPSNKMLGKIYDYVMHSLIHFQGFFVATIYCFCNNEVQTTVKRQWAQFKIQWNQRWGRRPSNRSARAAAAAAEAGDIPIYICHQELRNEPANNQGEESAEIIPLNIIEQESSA
T1 sequence (O60894 27-148): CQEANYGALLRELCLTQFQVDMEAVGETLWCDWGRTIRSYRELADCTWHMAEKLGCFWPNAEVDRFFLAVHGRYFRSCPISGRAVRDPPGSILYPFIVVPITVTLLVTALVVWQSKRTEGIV

Turning to `CC(C)C[C@H](NC(=O)[C@H](CCCNC(=N)N)NC(=O)CNC(=O)[C@H](CC(C)C)NC(=O)[C@@H](NC(=O)[C@@H]1CSSC[C@H](NC(=O)[C@H](C)N)C(=O)N[C@@H](CCCNC(=N)N)C(=O)N[C@@H](Cc2ccccc2)C(=O)NCC(=O)N[C@@H](C)C(=O)N1)C(C)C)C(=O)N[C@@H](CO)C(=O)N[C@@H](CCC(N)=O)C(=O)N[C@@H](CCC(=O)O)C(=O)N[C@@H](CC(C)C)C(=O)N[C@@H](Cc1c[nH]cn1)C(=O)N[C@@H](CCCNC(=N)N)C(=O)N[C@@H](CC(C)C)C(=O)N[C@@H](CCC(N)=O)C(=O)N[C@H](C(=O)N[C@@H](Cc1ccc(O)cc1)C(=O)N1CCC[C@H]1C(=O)N[C@@H](CCCNC(=N)N)C(=O)N[C@H](C(=O)N[C@@H](CC(N)=O)C(=O)N[C@H](C(=O)NCC(=O)N[C@@H](CO)C(=O)N[C@@H](CCCCN)C(=O)N[C@@H](C)C(=O)N[C@@H](Cc1ccccc1)C(N)=O)C(C)C)[C@@H](C)O)[C@@H](C)O` [compound 6] (H-ACRFGACVLGRLSQELHRLQTYPRTNVGSKAF-NH2; disulfide 2-7 (inferred)), the inhibition at 1 µM was 93.9%.

Take `CC(C)C[C@H](NC(=O)[C@H](CCCNC(=N)N)NC(=O)CNC(=O)[C@H](CC(C)C)NC(=O)[C@@H](NC(=O)[C@@H]1CSSC[C@H](NC(=O)[C@H](C)N)C(=O)N[C@@H](C(C)C)C(=O)N[C@@H](CC(C)C)C(=O)NCC(=O)N[C@@H](C)C(=O)N1)C(C)C)C(=O)N[C@@H](CO)C(=O)N[C@@H](CCC(N)=O)C(=O)N[C@@H](CCC(=O)O)C(=O)N[C@@H](CC(C)C)C(=O)N[C@@H](Cc1c[nH]cn1)C(=O)N[C@@H](CCCNC(=N)N)C(=O)N[C@@H](CC(C)C)C(=O)N[C@@H](CCC(N)=O)C(=O)N[C@H](C(=O)N[C@@H](Cc1ccc(O)cc1)C(=O)N1CCC[C@H]1C(=O)N[C@@H](CCCNC(=N)N)C(=O)N[C@H](C(=O)N[C@@H](CC(N)=O)C(=O)N[C@H](C(=O)NCC(=O)N[C@@H](CO)C(=O)N[C@@H](CCCCN)C(=O)N[C@@H](C)C(=O)N[C@@H](Cc1ccccc1)C(N)=O)C(C)C)[C@@H](C)O)[C@@H](C)O` [compound 5] (H-ACVLGACVLGRLSQELHRLQTYPRTNVGSKAF-NH2; disulfide 2-7 (inferred)): the inhibition at 1 µM was 88.5%.
